# Results from the supplement of paper PMC10307832.
# Compound: CC1(COc2ccc3c(c2)ncn3-c2ccc3cccc(N4CCC(N)CC4)c3n2)COC1 [Crenolanib] + CS(=O)(=O)CCNCc1ccc(-c2ccc3ncnc(Nc4ccc(OCc5cccc(F)c5)c(Cl)c4)c3c2)o1 [Lapatinib] (partner 2 µM)
# Test: relative viability (nuclei count vs DMSO), 5 days (fraction); higher = more cells survive
# Details: first compound 1 µM
# In short: (§1)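 Relative viability divides the nuclei count in treated wells by that in vehicle wells. Lung cancer cell lines were seeded in 1536-well plates, dosed by pin tool the next day, and fixed and stained after 5 days in one step with final 0.05% Triton X-100, 1% formaldehyde and 1 ug/ml Hoechst. Dosing was a single drug or a fixed anchor-drug dose plus five library-drug doses (not always all listed) in √10 steps, and values are medians of duplicate plates imaged at 4×.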
row,Cell Line,relative viability
1,201T,1.01
2,NCI-H1975,0.702
3,HOP-62,0.834
4,NCI-H2347,0.873
5,NCI-H1355,0.78
6,NCI-H650,0.655
7,CAL-12T,0.821
8,NCI-H1666,0.509
9,H3255,0.24
10,NCI-H23,0.992
11,NCI-H1915,0.764
12,NCI-H1437,0.688
13,NCI-H322M,0.587
14,NCI-H1563,0.849
15,NCI-H1792,0.874

# Compound: O=C1NC(=O)[C@@H](c2cn3c4c(cccc24)CCC3)[C@@H]1c1c[nH]c2ccccc12 [Tivantinib] + COc1cccc2cc(-c3nc([C@H]4CC[C@H](C(=O)O)CC4)n4ncnc(N)c34)[nH]c12 [OSI-027] (partner 0.5 µM)
# Test: as above
# Details: first compound 0.01 µM
# In short: as §1
row,Cell Line,relative viability
1,LXF-289,0.77
2,BEN,0.323
3,HCC-15,0.76
4,HCC-827,0.764
5,LOU-NH91,0.657
6,NCI-H2023,0.372
7,A-427,0.556
8,NCI-H460,0.608
9,NCI-H727,0.781
10,NCI-H1755,0.775
11,NCI-H520,0.318
12,NCI-H2405,0.717
13,SW 1573,0.636
14,201T,0.962
15,NCI-H1975,0.751
16,HOP-62,0.831
17,NCI-H2347,0.48
18,NCI-H1355,0.434
19,NCI-H650,0.542
20,CAL-12T,0.791
21,NCI-H1666,0.83
22,H3255,0.711
23,NCI-H23,0.651
24,NCI-H1915,0.626
25,NCI-H1437,0.911
26,NCI-H322M,0.542
27,NCI-H1563,0.78
28,NCI-H1792,0.777

# Same assay, conditions: first compound 0.03162 µM
row,Cell Line,relative viability
1,LXF-289,0.724
2,BEN,0.269
3,HCC-15,0.53
4,HCC-827,0.844
5,LOU-NH91,0.709
6,NCI-H2023,0.363
7,A-427,0.413
8,NCI-H460,0.573
9,NCI-H727,0.484
10,NCI-H1755,0.662
11,NCI-H520,0.221
12,NCI-H2405,0.637
13,SW 1573,0.612
14,201T,0.718
15,NCI-H1975,0.752
16,HOP-62,0.566
17,NCI-H2347,0.386
18,NCI-H1355,0.348
19,NCI-H650,0.403
20,CAL-12T,0.541
21,NCI-H1666,0.743
22,H3255,0.551
23,NCI-H23,0.366
24,NCI-H1915,0.543
25,NCI-H1437,0.795
26,NCI-H322M,0.501
27,NCI-H1563,0.756
28,NCI-H1792,0.685

# Same assay, conditions: first compound 0.1 µM
row,Cell Line,relative viability
1,LXF-289,0.761
2,BEN,0.278
3,HCC-15,0.614
4,HCC-827,0.708
5,LOU-NH91,0.729
6,NCI-H2023,0.356
7,A-427,0.487
8,NCI-H460,0.619
9,NCI-H727,0.515
10,NCI-H1755,0.69
11,NCI-H520,0.261
12,NCI-H2405,0.632
13,SW 1573,0.562
14,201T,0.665
15,NCI-H1975,0.611
16,HOP-62,0.876
17,NCI-H2347,0.418
18,NCI-H1355,0.401
19,NCI-H650,0.501
20,CAL-12T,0.634
21,NCI-H1666,0.876
22,H3255,0.571
23,NCI-H23,0.515
24,NCI-H1915,0.648
25,NCI-H1437,0.811
26,NCI-H322M,0.546
27,NCI-H1563,0.718
28,NCI-H1792,0.595

# Same assay, conditions: first compound 0.3162 µM
row,Cell Line,relative viability
1,LXF-289,0.858
2,BEN,0.339
3,HCC-15,0.7
4,HCC-827,0.253
5,LOU-NH91,0.465
6,NCI-H2023,0.341
7,A-427,0.456
8,NCI-H460,0.864
9,NCI-H727,0.468
10,NCI-H1755,0.791
11,NCI-H520,0.261
12,NCI-H2405,0.574
13,SW 1573,0.556
14,201T,0.74
15,NCI-H1975,0.691
16,HOP-62,0.887
17,NCI-H2347,0.475
18,NCI-H1355,0.356
19,NCI-H650,0.641
20,CAL-12T,0.256
21,NCI-H1666,0.687
22,NCI-H23,0.518
23,NCI-H1915,0.715
24,NCI-H1437,0.886
25,NCI-H1563,0.745
26,NCI-H1792,0.547

# Compound: CC1(COc2ccc3c(c2)ncn3-c2ccc3cccc(N4CCC(N)CC4)c3n2)COC1 [Crenolanib] + C[C@@H](Oc1cc(-c2cnn(C3CCNCC3)c2)cnc1N)c1c(Cl)ccc(F)c1Cl [Crizotinib] (partner 1 µM)
# Test: as above
# Details: first compound 0.01 µM
# In short: as §1
row,Cell Line,relative viability
1,LXF-289,0.81
2,BEN,0.89
3,HCC-15,0.944
4,HCC-827,0.938
5,LOU-NH91,0.765
6,NCI-H2023,0.708
7,A-427,0.854
